# PMC3132048, “Treatment of experimental adjuvant arthritis with a novel folate receptor-targeted folic acid-aminopterin conjugate” (Arthritis Research & Therapy, 2011)
# Tested on: RAW264.7 cells
# Type: cell-based, murine
# Protocol: RAW264.7 cells in 96-well plates (3.5 × 10^4 cells/well) were treated with 10-fold serial dilutions of EC0746 (≤1 μM) in FFRPMI medium without and with 100-fold molar excess of FA. After a 2-hour exposure, the drug-containing media were replaced and the cells were allowed to incubate further for 70 hours (referred in the text as a 70-hour chase). In comparison, the cells were also treated continuously with AMT for 72 hours. Four hours prior to the end of incubation, LPS was added to the treated cells at a final concentration of 100 ng/ml. Then 100 μl culture supernatants were collected for TNFα analysis by ELISA. The cell viability was assessed by adding XTT to the remaining media for an additional 4 hours following the manufacturer's instructions. To evaluation of a cytostatic effect, RAW264.7 cells seeded at 1 × 10^6 cells/well in six-well plates were subjected to 2-hour exposure and a 70-hour chase with 0, 0.1, 10, and 1000 nM EC0746 without and with excess FA. At the end of the incubation (no LPS added), the surviving cells (that is, still viable cells) were recovered and redistributed in equal numbers in fresh medium for an additional 72 hours. The cell proliferation was again assessed by the XTT assay. All results were expressed as the percentage absorbance (minus background) relative to the untreated control cells.
compound,measurement,setting,value
Nc1nc(N)c2nc(CNc3ccc(C(=O)N[C@@H](CCC(=O)NNC(=O)OCCSSC[C@H](NC(=O)[C@H](CCC(=O)NC[C@H](O)[C@@H](O)[C@H](O)[C@H](O)CO)NC(=O)[C@H](CCC(=O)O)NC(=O)[C@H](CCC(=O)NC[C@H](O)[C@@H](O)[C@H](O)[C@H](O)CO)NC(=O)[C@H](CCC(=O)O)NC(=O)[C@H](CCC(=O)NC[C@H](O)[C@@H](O)[C@H](O)[C@H](O)CO)NC(=O)CC[C@H](NC(=O)c4ccc(NCc5cnc6nc(N)[nH]c(=O)c6n5)cc4)C(=O)O)C(=O)O)C(=O)O)cc3)cnc2n1 [EC0746],IC50,"2-hour pulse, 70-hour chase, read-out: Relative 50% inhibitory concentration, inhibition of cell proliferation (XTT)",~0.3 nM
same,Antiproliferative effect competitive in presence of excess FA,100-fold molar excess FA,100%
same,Proliferation of surviving cells redispersed into fresh medium,additional 72-hour incubation after 2-hour pulse plus 70-hour chase,could no longer divide
same,Maximum growth inhibition,"concentrations ≥1 nM, 2-hour pulse, 70-hour chase",~ 50%
